The record followed here is a melting point compilation (Tetko et al.).

SMILES strings stand for the structures.

The term melting point denotes the temperature, or range, at which the solid turns liquid.

On to `CN(Cc1ccccc1)C(N)=O`, for which the melting point lay in the range of 134 to 136 °C.
`O=C(O)C1CCN(c2ccc3nnnn3n2)CC1` displayed a melting point of 199 to 201 °C.
`CC(NC(=O)CCl)C1CC1` (configuration not stated): the melting point lay within 50 to 52 °C.
As for `NCCNC(=O)c1ccccc1O`, the figure is 38 to 40 °C.
In turn, `CCS(=O)(=O)c1ccc2oc(S)nc2c1` came in with a melting point of 188 to 190 °C.
As for `CCCOc1ccc(C#N)cc1OC`, the melting point is 90 to 92 °C.
In turn, `O=C(O)c1n[nH]c2c1CCC2` gave a melting point of 287 to 289 °C.
As for `O=C(O)c1sc2cccc(F)c2c1COc1ccccc1`, the figure is 206 to 208 °C; as for `Cc1cc(C)c2c(=O)[nH]sc2n1`, 195 to 197 °C; as for `CCc1noc(-c2ccc(N)c(Cl)c2)n1`, 89 to 91 °C.
Turning to `Nc1cc(-c2ccc([N+](=O)[O-])cc2)no1`, the melting point was in the range of 195 to 197 °C.
With `CCOC(=O)c1c(NC(=O)CCl)sc(C(C)=O)c1C` the figure was 176 to 178 °C.
For `Sc1nc2cc(Cl)ccc2n1CCOc1ccccc1`, the melting point lay in the range of 182 to 184 °C.
`CC(C)(C)OC(=O)N1CCc2c(sc(N)c2C#N)C1` gave a melting point of 202 to 204 °C.
Compound `Cc1nc(Cl)c2c(-c3ccccc3)csc2n1` displayed a melting point of 169 to 173 °C.
`NC(=O)CCOc1ccc(N)cc1` registered a melting point of 110 to 112 °C.
In turn, `Cc1ccccc1-n1c(S)nc(O)cc1=O` came in with a melting point of 206 to 208 °C.
In turn, `Nc1cnn(-c2ncccn2)c1` gave a melting point of 169 to 171 °C.
Consider `NNc1ccc(S(=O)(=O)C(F)(F)F)cc1`, for which the melting point is 93 to 95 °C.
The compound `Cc1cc(C)n(-c2ccc(C(=O)O)cn2)n1` had a melting point of 241 to 243 °C.
With `NCc1cc(C(N)=O)no1` the figure was 149 to 151 °C; with `Cc1c(C(=O)O)cccc1-c1ccccn1`, 211 to 213 °C; with `CC(C)(O)CN1CCNCC1`, 61 to 63 °C.
`Cc1nn(Cc2ccc(Cl)cc2)c2sc(C(=O)O)cc12` gave a melting point of 245 to 247 °C.
`O=C(O)C1CC2CCC1O2` (configuration not stated) returned a melting point of 44 to 46 °C.
`Nc1nc(-c2ccc([N+](=O)[O-])cc2)n[nH]1` displayed a melting point of 278 to 280 °C.
As for `CSc1nn(-c2ccccc2)c(N)c1C#N`, the melting point was 135 to 137 °C.
As for `O=C(O)c1ccc(S(=O)(=O)Nc2ccccc2Oc2ccccc2)cc1`, the figure is 204 to 206 °C; as for `COc1cc(CN)cc(OC)c1O`, 149 to 151 °C.
For the compound `CN1CCOC(C(=O)c2ccc(Cl)cc2)C1` (configuration not stated), the melting point was in the range of 59 to 61 °C.
`NC(=S)c1cccnc1N` gave a melting point of 124 to 126 °C.
With `Cc1cc(OCc2ccc(C(=O)NN)cc2)ccc1Cl`, the melting point was in the range of 78 to 80 °C.
For `NC(=O)Cc1ccccc1F`, the melting point lay in the range of 158 to 160 °C.
`O=Cc1ccc(-c2ccncc2)cc1F` yielded a melting point of 107 to 109 °C.
With `ON=Cc1ccc(OCc2ccncc2)cc1`, the melting point lay in the range of 163 to 165 °C.
As for `O=C(O)c1csc(-c2ccccc2)c1`, the figure is 184 to 186 °C; as for `Cc1ccc(I)cc1C(=O)O`, 166 to 168 °C; as for `COc1cccc(C(=O)c2c(N)sc3c2CCC3)c1`, 127 to 129 °C.
As for `O=C(O)c1ccnc(Cl)c1I`, the figure is 218 to 220 °C; as for `O=C(CCl)NCC1(c2ccccc2)CCCCC1`, 54 to 56 °C; as for `Cc1nc2ccccc2cc1C(=O)O`, 243 to 245 °C.
With `N#CC1COCCN1` (configuration not stated), the melting point is 76 to 78 °C.
`CCCc1nonc1N` returned a melting point of 29 to 31 °C.
Take `COc1ccc(C(=O)Nc2cc(F)ccc2C(=O)O)cc1`: the melting point was in the range of 225 to 227 °C.
Consider `Cc1cccc(OC(C)C(=O)O)c1` (configuration not stated), for which the melting point is 85 to 87 °C.
With `Cc1coc(-c2cccc(N)c2)n1` the figure was 88 to 90 °C; with `COC(=O)C(CCl)NC(C)=O` (configuration not stated), 74 to 76 °C; with `NC1CCCC(C(=O)NC2CC2)C1` (configuration not stated), 97 to 99 °C.
On to `Nc1ccc(Br)cc1O`, for which the melting point lay in the range of 138 to 140 °C.
As to `COc1cc([N+](=O)[O-])ccc1NC(=O)C(C)Cl` (configuration not stated), the melting point was 85 to 87 °C.
On to `Nc1cc(NC(=O)Cn2cccnc2=O)ccc1F`, for which the melting point was 251 to 253 °C.
`Cc1ccc2sc(-c3ccc(CCl)cc3)nc2c1` came in with a melting point of 149 to 151 °C.
Turning to `CS(=O)(=O)c1ccccc1-n1cc(C(=O)O)cn1`, the melting point was 225 to 227 °C.
The compound `Cc1cccc(-n2nnnc2S)c1C` returned a melting point of 115 to 117 °C.
`O=C(O)c1csc(C(=O)O)c1` gave a melting point of 279 to 281 °C.
`COC(=O)/C=C/c1ccc(OC)c(S(=O)(=O)Cl)c1` came in with a melting point of 115 to 117 °C.
Compound `O=C(O)c1ccc(Oc2ccc(Br)cc2)c(F)c1` yielded a melting point of 251 to 253 °C.
As to `Nc1ccccc1C(=O)NCC1CCCO1` (configuration not stated), the melting point lay in the range of 78 to 80 °C.
As for `Cc1c([N+](=O)[O-])cc(C(=O)O)cc1S(=O)(=O)Cl`, the figure is 176 to 178 °C; as for `COc1cc(C=O)ccc1OC(=O)OC(C)(C)C`, 89 to 91 °C.
In turn, `CCNc1nc(S)nc2ccccc12` had a melting point of 283 to 285 °C.
As for `O=C(O)Cc1ccc(S(=O)(=O)CC(F)(F)F)cc1`, the figure is 142 to 144 °C; as for `CCCCNc1ccc(N2CCOCC2)cc1`, 59 to 61 °C.
Turning to `CC(C)(C)c1ccc(C(=O)O)s1`, the melting point lay in the range of 119 to 121 °C.
Compound `NC(=O)c1ccc(C(N)=S)cc1` had a melting point of 240 to 242 °C.
Consider `Nc1ccc(Cl)c(-c2nnc3n2CCCCC3)c1`, for which the melting point was 284 to 286 °C.
As for `O=Cc1c(O)cccc1Cl`, the melting point lay in the range of 52 to 54 °C.
As for `CCOC(=O)N1CCN(S(=O)(=O)Cl)CC1`, the figure is 67 to 69 °C.
`CC(=O)Nc1cccc(N2C(=O)C=CC2=O)c1` registered a melting point of 185 to 187 °C.
As to `COC(=O)CCNC(=O)c1ccc(N)cc1`, the melting point fell in the range of 99 to 101 °C.
`COC(=O)C1(C)CCc2ccccc2C1=O` (configuration not stated) gave a melting point of 56 to 58 °C.
In turn, `Cc1nc(CCl)nc2ccccc12` returned a melting point of 60 to 62 °C.
Take `O=C1CCCCC1n1ccc([N+](=O)[O-])n1` (configuration not stated): the melting point fell in the range of 128 to 130 °C.
Turning to `CC(=O)NCc1ccc(C(=O)O)cc1`, the melting point was in the range of 188 to 190 °C.
As for `CNc1ccc(Cl)cc1[N+](=O)[O-]`, the figure is 106 to 108 °C.
As for `Nc1nc2c(OC(F)F)cccc2s1`, the figure is 144 to 146 °C.
For `O=C(O)c1ccc(S(=O)(=O)Cl)cc1F`, the melting point was 142 to 144 °C.
Compound `Fc1ccc(-n2ncc3c(Cl)ncnc32)cc1` had a melting point of 154 to 156 °C.
`Nc1cc(Cl)c(NC(=O)c2ccsc2)c(Cl)c1`: the melting point lay within 206 to 208 °C.
As to `CCOC(=O)c1sc2nc(Cl)cc(C)c2c1C`, the melting point lay within 125 to 127 °C.
For the compound `Cc1nscc1C(=O)O`, the melting point fell in the range of 219 to 221 °C.
With `COc1nc(N2CCNCC2)ncc1Br` the figure was 89 to 91 °C; with `NNC(=O)COc1ccccc1F`, 109 to 112 °C; with `Cc1ccc(-c2nc(CC(=O)O)cs2)c(C)c1`, 104 to 106 °C.
Compound `CNC(=O)c1cccnc1Cl` displayed a melting point of 106 to 108 °C.
With `CCCCNc1ccc(S(N)(=O)=O)cc1N`, the melting point is 130 to 132 °C.
For `O=[N+]([O-])c1c(Cl)ccc2scnc12`, the melting point fell in the range of 132 to 134 °C.
